# Experimental data taken from publication PMC7849180 (Frontiers in Pharmacology, 2020).
# Where “and” joins values, the source holds several entries; their conditions need not be identical. Identical values can stand only once.
# Assays:
# [1] = PK, single intravenous dose; type: in vivo, rats; details: 6.1 mg/kg ZG0128 iv
# Description: Preclinical Pharmacokinetic Properties
# Pharmacokinetic Study of Single Dose Intravenous Administration in […]
# ZG0163 administered via intravenous injection had low plasma clearance in rats, […]
# The Tmax of the metabolite
# ZG0245 in rats was 1.0 h on average, and the plasma exposure (AUC0-t) was 15.0% of the original drug. The pharmacokinetic parameters obtained after the intravenous […]
# Table 10. Pharmacokinetic parameters of ZG0163 in rats administered with 6.1 mg/kg of ZG0128 via intravenous injection. […]
# IKKβ = IKKβ (Homo sapiens, UniProt O14920); assay: Phosphorylation of IκBα by IKKβ; type: biochemical
# [2] = tested on: Ba/F3-EpoR-JAK2V617F cells; assay: Cell activity of mutant Ba/F3-EpoR-JAK2V617F; type: cell-based; details: read-out: IC50, inhibition of cell activity
# Excerpt: Suzhou Zelgen Biopharmaceuticals Co., Ltd. Jaktinib Hydrochloride Tablets Chemical Drug Class 1 New Drug has been completed. The ongoing toxicity tests include a long-term 39-week toxicity test in Beagle dogs by oral administration, a reproductive toxicity test in rats during the teratogenic sensitive period, and a reproductive toxicity test in rabbits during the teratogenic sensitive period.
# Preclinical Pharmacodynamic Study
# Study on the in vitro Pharmacodynamic Effects of ZG0163 at the […]
# In this study, the effects of ZG0163 was similar to those of positive control compounds, ZG0164 and ZG0178.
# Study on the in vitro Pharmacodynamic Effects of ZG0163 at the Cellular Level (Ba/F3-EpoR-JAK2V617F cells)
# JAK2V617F cell line, the compound ZG0163 was able to induce apoptosis of pathogenic cells and eliminate abnormal cell proliferation by inhibiting the JAK-STAT signaling pathway, thus achieving treatment efficacy in myeloproliferative neoplasms. […]
# cell line, manifested as significant inhibition of phosphorylation of JAK2 and its downstream signaling proteins ERK and STAT5. The effects of ZG0163 was similar to those of positive control compounds, ZG0164 and ZG0178.
# EpoR-JAK2V617F, which was similar to those of positive control compounds, ZG0164 […]
# and ZG0178. However, the inhibitory effect on the activity of Ba/F3-EpoR cell line […]
# respectively. […]
# JAK2 signaling pathway = assay: JAK2 signaling in NSG mice injected with HCD-57-JAK2V617F cells; type: in vivo; details: single 200 mg/kg intraperitoneally, 4 h
# Description: (§1) Suzhou Zelgen Biopharmaceuticals Co., Ltd. Jaktinib Hydrochloride Tablets Chemical Drug Class 1 New Drug […]
# cells at a concentration of 1 μM. […]
# effectively affect the primary cells harboring the JAK2V617F mutation in patients with […]
# In Vivo Pharmacodynamic Study of ZG0128 in Mouse Model of Myeloproliferative Neoplasm
# Primary myelofibrosis (PMF) is characterized by the formation of bone marrow fibrous tissues (scar-like) caused by the abnormal proliferation of three types of cells (platelets, white blood cells, and red blood cells). At present, there is still no particularly effective treatment for these diseases. JAKV617F transgenic mice and JAK2V617F bone marrow transplanted mice can develop the pathological characteristics of myeloproliferative neoplasm, which can be used to effectively evaluate the efficacy of drugs used in the treatment of myeloproliferative neoplasms.
# HCD-57-JAK2V617F cells were intravenously injected into NSG mice. Three weeks later, the mice were injected intraperitoneally with a single dose of 200 mg/kg of compound ZG0128, and euthanized 4 h after drug administration. The results of […]
# nucleated cells in spleen were HCD-57-JAK2V617F transplanted cells. Western blot […]
# the phosphorylation of downstream major signaling proteins of JAK2, i.e., ERK1/2, […]
# inhibit the JAK2 signaling pathway in vivo. […]
# CYP1A2 = type: in vitro ADME, human; details: 0.10, 1.00, 10.0 μM
# Excerpt: as §1
# metabolite formed in human liver microsomes was the morpholine ring-opening metabolite M3. The enzyme phenotype involved in the oxidation of ZG0128 to form M3 was identified with reaction phenotyping assay using chemical inhibition and human recombinant CYP450 enzymes.
# Using UPLC/Q-TOF MS, the amount of ZG0128 and primary alcohol metabolite formed by morpholine ring-opening (M3) in human liver microsomes and different incubation systems for human recombinant enzymes, including CYP1A2, CYP2A6, […]
# inhibitor 1-ABT, CYP3A inhibitor ketoconazole, and CYP2C8 inhibitor quercetin can […]
# for human liver microsomes and inhibit the formation of M3. […]
# primary enzyme that produced M3 while CYP1A2, 2D6 and 2C9 were also partly involved. Results from the reaction phenotyping assay using chemical inhibition and […]
# microsomes was a morpholine ring-opening metabolite catalyzed mainly by CYP3A4 […]
# Inhibition and Induction of ZG0128 on CYP-P450s
# The inhibition and induction potentials of ZG0128 on CYP-P450s were evaluated using mixed human liver microsomes and human primary hepatocytes as the in vitro […]
# hydroxylation), and CYP3A4 (testosterone 6β-hydroxylation), with an IC50 greater than […]. […]
# Sequence of IKKβ (O14920 whole entry, species assumed): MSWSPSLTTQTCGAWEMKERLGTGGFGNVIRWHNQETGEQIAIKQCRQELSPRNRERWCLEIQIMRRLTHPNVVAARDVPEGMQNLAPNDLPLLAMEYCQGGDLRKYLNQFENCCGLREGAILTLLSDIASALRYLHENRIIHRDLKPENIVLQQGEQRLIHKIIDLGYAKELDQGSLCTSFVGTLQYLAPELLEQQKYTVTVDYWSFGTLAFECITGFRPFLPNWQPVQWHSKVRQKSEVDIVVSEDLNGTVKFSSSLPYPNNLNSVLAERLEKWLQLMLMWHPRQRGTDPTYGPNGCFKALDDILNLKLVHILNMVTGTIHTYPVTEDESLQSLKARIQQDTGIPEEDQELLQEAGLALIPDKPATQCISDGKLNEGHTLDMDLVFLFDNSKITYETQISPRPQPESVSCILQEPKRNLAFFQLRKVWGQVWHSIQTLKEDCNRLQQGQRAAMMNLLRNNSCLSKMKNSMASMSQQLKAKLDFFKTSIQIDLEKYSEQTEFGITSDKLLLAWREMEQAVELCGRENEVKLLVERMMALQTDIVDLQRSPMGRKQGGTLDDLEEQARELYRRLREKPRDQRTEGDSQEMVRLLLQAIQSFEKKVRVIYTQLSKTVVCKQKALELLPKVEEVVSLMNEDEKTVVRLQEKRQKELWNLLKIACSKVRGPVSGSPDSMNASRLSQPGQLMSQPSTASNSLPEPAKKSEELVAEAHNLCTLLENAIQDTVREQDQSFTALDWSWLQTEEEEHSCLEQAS
compound,measurement,setting,value
Jaktinib,AUC0-t,[1]; Female,26000 ng·h/mL
same,AUC0-∞,[1]; Female,26000 ng·h/mL
same,CL,[1]; Female,3.23 ± 0.38 mL/min/kg
same,MRT,[1]; Female,2.11 h
same,Vss,[1]; Female,0.407 ± 0.063 L/kg
same,t1/2,[1]; Female,2.01 h
same,AUC0-t,[1]; Male,17700 ng·h/mL
same,AUC0-∞,[1]; Male,17700 ng·h/mL
same,CL,[1]; Male,4.92 ± 1.34 mL/min/kg
same,MRT,[1]; Male,2.16 h
same,Vss,[1]; Male,0.620 ± 0.120 L/kg
same,t1/2,[1]; Male,2.01 h
same,AUC0-t,[1]; Overall,21800 ng·h/mL
same,AUC0-∞,[1]; Overall,21900 ng·h/mL
same,MRT,[1]; Overall,2.14 h
same,t1/2,[1]; Overall,2.01 h
same,CL,"[1]; Overall, listed as ZG0163",4.07 mL/min/kg and 4.07 ± 1.28 mL/min/kg
same,Vss,"[1]; Overall, listed as ZG0163",0.514 L/kg and 0.514 ± 0.145 L/kg
same,effect on phosphorylation of IκBα by IKKβ,IKKβ,no significant effects
same,IC50,[2],500 nM
"Cl.Cl.O.[2H]C1([2H])COCC([2H])([2H])N1c1ccc(Nc2nccc(-c3ccc(C(=O)NCC#N)cc3)n2)cc1 [ZG0128, Jaktinib Dihydrochloride Monohydrate]","phosphorylation of ERK1/2, Akt and STAT5 in splenocytes",JAK2 signaling pathway,significantly inhibited
same,in vitro induction,CYP1A2,no in vitro induction
